Measured values reported in the kinase profiling compilation of Christmann-Franck et al. (2016).
Values joined by “and” are separate entries in the source; they are usually repeats but may differ in a detail not shown here. Identical values can stand only once.

Assays:
Assay in all cases: radiometric filter-binding kinase assay, Kinaseprofiler
PASK (human) = PASK (human) (UniProt Q96RG2); details: ATP 15 µM
STK3 (human) = STK3 (human) (UniProt Q13188); details: ATP 155 µM
ALK (human) = ALK (human) (UniProt Q9UM73); details: ATP 200 µM
FES (human) = FES (human) (UniProt P07332); details: ATP 45 µM
CDK3 CCNE1 (human) = CDK3 CCNE1 (human) (UniProt Q00526+P24864); details: ATP 200 µM
WNK3 (human) = WNK3 (human) (UniProt Q9BYP7); details: ATP 200 µM
KIT (human) = KIT (human) (UniProt P10721); details: ATP 200 µM
CDC42BPA (human) = CDC42BPA (human) (UniProt Q5VT25); details: ATP 45 µM
YES1 (human) = YES1 (human) (UniProt P07947); details: ATP 45 µM
MAPKAPK3 (human) = MAPKAPK3 (human) (UniProt Q16644); details: ATP 90 µM
FLT1 (human) = FLT1 (human) (UniProt P17948); details: ATP 200 µM
ROCK1 (human) = ROCK1 (human) (UniProt Q13464); details: ATP 70 µM
PAK3 (human) = PAK3 (human) (UniProt O75914); details: ATP 120 µM
ITK (human) = ITK (human) (UniProt Q08881); details: ATP 200 µM
CDK9 CCNT1 (human) = CDK9 CCNT1 (human) (UniProt P50750+O60563); details: ATP 45 µM
RIPK2 (human) = RIPK2 (human) (UniProt O43353); details: ATP 120 µM
NLK (human) = NLK (human) (UniProt Q9UBE8); details: ATP 200 µM
FYN (human) = FYN (human) (UniProt P06241); details: ATP 70 µM
HCK (human) = HCK (human) (UniProt P08631)
MAPK8 (human) = MAPK8 (human) (UniProt P45983); details: ATP 45 µM
PRKACA (human) = PRKACA (human) (UniProt P17612); details: ATP 10 µM
MAP3K7 (human) = MAP3K7 (human) (UniProt O43318); details: ATP 45 µM
IKBKB (human) = IKBKB (human) (UniProt O14920); details: ATP 10 µM
AURKC (human) = AURKC (human) (UniProt Q9UQB9); details: ATP 15 µM
MAPK10 (human) = MAPK10 (human) (UniProt P53779); details: ATP 10 µM
PRKD2 (human) = PRKD2 (human) (UniProt Q9BZL6); details: ATP 155 µM
MKNK2 (human) = MKNK2 (human) (UniProt Q9HBH9); details: ATP 120 µM
PRKG1 (human) = PRKG1 (human) (UniProt Q13976); details: ATP 90 µM
RPS6KA4 KD1 KD2 (human) = RPS6KA4 KD1 KD2 (human) (UniProt O75676); details: ATP 45 µM
PAK7 (human) = PAK7 (human) (UniProt Q9P286); details: ATP 15 µM
PRKCG (human) = PRKCG (human) (UniProt P05129); details: ATP 15 µM
EPHB3 (human) = EPHB3 (human) (UniProt P54753); details: ATP 90 µM

Chain of PRKG1 (human) (Q13976 whole entry, looked up): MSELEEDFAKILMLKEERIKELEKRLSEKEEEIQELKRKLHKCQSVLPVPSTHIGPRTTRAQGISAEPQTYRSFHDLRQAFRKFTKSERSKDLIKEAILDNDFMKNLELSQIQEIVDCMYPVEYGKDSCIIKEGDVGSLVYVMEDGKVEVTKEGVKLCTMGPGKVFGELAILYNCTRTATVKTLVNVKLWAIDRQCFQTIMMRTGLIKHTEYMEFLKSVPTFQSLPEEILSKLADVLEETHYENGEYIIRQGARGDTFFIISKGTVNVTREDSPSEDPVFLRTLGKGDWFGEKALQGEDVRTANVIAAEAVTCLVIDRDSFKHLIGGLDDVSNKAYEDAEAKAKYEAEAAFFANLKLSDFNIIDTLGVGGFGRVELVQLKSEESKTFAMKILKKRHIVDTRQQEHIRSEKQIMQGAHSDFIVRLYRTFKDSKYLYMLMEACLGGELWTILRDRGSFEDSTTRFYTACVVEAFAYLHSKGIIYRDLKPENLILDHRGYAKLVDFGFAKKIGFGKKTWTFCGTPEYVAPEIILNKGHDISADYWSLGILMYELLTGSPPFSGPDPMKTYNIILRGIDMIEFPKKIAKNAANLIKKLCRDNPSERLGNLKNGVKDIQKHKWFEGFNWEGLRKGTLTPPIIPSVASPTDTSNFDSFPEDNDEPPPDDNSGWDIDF
Chain of HCK (human) (P08631 whole entry, looked up): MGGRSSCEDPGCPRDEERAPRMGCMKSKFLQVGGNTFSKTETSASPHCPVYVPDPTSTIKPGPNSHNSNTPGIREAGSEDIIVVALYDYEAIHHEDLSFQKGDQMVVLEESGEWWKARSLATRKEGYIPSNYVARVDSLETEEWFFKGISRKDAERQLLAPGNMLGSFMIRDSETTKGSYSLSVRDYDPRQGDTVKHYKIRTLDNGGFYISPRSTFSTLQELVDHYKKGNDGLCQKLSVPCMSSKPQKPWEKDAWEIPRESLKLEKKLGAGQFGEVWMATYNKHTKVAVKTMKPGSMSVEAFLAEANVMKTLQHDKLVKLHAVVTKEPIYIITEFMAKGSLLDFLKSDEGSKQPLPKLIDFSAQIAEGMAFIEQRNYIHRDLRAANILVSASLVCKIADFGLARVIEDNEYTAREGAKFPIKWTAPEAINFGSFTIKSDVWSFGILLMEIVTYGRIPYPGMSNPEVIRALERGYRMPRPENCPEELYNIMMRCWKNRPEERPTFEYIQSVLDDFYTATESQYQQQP
Chain of WNK3 (human) (Q9BYP7 whole entry, looked up): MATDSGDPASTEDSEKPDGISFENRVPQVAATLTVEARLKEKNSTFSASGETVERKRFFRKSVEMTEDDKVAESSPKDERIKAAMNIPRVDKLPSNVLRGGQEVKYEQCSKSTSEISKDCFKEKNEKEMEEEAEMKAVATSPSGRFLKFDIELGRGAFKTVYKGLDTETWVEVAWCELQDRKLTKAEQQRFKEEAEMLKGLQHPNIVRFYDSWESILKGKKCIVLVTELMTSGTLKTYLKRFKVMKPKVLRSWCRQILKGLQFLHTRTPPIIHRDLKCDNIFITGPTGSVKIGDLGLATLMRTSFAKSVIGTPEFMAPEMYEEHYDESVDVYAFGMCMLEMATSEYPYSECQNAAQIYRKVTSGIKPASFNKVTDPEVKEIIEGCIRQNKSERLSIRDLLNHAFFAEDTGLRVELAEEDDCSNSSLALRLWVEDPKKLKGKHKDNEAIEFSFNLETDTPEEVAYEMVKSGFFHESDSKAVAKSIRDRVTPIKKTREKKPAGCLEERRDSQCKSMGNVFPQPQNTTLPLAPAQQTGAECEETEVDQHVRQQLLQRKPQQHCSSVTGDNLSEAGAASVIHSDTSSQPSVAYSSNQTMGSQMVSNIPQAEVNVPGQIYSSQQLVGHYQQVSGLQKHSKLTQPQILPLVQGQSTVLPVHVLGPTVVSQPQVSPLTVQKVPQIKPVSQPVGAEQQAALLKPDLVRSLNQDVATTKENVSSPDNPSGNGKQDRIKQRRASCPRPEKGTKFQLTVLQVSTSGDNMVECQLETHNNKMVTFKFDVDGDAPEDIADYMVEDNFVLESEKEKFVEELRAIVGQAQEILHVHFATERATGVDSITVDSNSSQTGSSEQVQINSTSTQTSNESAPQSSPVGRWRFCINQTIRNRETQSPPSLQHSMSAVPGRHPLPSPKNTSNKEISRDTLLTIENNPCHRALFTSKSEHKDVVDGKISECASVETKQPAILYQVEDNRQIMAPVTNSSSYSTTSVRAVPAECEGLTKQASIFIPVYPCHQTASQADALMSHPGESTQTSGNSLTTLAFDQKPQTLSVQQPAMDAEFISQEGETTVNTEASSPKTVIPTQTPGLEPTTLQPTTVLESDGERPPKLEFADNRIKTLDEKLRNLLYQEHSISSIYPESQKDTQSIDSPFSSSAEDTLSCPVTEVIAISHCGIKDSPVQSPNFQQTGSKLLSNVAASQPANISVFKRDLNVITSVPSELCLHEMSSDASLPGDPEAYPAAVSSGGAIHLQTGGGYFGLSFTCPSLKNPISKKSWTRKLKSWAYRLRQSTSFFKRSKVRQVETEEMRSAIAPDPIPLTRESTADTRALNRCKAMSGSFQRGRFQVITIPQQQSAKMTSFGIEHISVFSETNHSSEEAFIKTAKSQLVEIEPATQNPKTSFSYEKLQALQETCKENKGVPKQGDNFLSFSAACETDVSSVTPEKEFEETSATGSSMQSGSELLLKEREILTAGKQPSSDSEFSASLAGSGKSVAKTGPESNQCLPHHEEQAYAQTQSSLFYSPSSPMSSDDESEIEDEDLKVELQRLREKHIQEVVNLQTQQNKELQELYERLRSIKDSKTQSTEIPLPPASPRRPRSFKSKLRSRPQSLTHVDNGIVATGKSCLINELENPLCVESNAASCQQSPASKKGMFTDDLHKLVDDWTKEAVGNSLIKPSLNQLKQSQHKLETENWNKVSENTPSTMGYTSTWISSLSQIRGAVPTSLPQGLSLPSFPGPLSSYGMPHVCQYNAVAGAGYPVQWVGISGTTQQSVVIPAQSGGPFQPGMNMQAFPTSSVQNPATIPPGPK
Chain of STK3 (human) (Q13188 whole entry, looked up): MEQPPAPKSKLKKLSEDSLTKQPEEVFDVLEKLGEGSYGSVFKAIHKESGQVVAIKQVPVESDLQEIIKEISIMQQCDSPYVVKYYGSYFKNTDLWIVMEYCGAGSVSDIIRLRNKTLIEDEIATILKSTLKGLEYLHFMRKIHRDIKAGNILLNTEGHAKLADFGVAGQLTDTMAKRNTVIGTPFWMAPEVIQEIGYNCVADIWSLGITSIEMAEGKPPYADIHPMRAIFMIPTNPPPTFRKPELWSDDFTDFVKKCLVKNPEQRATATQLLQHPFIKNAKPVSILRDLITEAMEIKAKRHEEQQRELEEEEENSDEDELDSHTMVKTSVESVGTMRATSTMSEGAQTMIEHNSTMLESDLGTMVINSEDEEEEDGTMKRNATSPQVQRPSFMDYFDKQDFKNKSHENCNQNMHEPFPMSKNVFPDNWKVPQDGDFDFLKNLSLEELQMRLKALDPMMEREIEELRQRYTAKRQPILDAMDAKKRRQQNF
Chain of FYN (human) (P06241 whole entry, looked up): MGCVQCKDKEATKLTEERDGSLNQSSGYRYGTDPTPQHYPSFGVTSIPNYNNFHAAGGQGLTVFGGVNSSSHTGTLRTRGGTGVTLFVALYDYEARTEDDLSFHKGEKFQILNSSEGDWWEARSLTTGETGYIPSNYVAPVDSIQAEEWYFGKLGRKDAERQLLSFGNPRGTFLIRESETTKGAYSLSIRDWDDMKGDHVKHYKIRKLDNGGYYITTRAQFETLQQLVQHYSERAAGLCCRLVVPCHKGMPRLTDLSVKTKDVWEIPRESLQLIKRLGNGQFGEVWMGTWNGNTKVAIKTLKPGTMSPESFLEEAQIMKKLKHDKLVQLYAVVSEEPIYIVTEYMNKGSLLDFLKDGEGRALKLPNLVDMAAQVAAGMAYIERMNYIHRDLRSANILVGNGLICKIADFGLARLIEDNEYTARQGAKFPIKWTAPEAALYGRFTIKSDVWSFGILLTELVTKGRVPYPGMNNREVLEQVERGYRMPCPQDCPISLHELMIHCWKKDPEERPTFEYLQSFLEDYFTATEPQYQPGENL
Chain of CDK3 CCNE1 (human) (P24864 whole entry, looked up): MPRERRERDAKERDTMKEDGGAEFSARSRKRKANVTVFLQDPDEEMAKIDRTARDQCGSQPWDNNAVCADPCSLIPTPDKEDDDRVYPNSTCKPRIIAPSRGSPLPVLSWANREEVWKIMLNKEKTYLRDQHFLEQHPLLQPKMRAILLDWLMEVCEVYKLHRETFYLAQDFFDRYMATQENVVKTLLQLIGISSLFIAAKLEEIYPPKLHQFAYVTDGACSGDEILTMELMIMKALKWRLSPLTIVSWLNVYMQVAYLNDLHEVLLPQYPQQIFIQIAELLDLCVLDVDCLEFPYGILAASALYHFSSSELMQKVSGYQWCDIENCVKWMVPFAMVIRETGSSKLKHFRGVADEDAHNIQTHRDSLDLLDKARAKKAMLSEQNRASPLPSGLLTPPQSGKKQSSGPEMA
Chain of CDK3 CCNE1 (human) (Q00526 whole entry, looked up): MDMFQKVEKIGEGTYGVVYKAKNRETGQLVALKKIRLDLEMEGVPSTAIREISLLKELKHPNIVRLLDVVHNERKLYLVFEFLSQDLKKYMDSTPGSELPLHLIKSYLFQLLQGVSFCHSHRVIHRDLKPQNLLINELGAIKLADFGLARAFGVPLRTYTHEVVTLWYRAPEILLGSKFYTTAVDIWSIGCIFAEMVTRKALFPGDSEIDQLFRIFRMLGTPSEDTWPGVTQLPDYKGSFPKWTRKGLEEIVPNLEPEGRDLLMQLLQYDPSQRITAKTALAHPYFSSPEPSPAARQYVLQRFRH
Chain of AURKC (human) (Q9UQB9 whole entry, looked up): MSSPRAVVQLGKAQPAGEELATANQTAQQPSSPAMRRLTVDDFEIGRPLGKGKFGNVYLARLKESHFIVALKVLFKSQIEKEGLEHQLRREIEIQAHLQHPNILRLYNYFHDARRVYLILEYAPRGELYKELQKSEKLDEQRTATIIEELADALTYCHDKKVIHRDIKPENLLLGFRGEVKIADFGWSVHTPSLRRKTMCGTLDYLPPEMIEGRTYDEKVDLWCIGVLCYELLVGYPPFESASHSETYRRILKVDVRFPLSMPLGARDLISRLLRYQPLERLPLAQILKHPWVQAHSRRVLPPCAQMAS

residual activity (PASK (human); compound 1.0 µM): 112%
residual activity (PASK (human); compound 10.0 µM): 76%
residual activity (STK3 (human); compound 1.0 µM): 6%
residual activity (STK3 (human); compound 10.0 µM): 0%
residual activity (ALK (human); compound 1.0 µM): 52%
residual activity (ALK (human); compound 10.0 µM): 18%
residual activity (FES (human); compound 1.0 µM): 72%
residual activity (FES (human); compound 10.0 µM): 30%
residual activity (CDK3 CCNE1 (human); compound 1.0 µM): 5%
residual activity (CDK3 CCNE1 (human); compound 10.0 µM): 0%
residual activity (WNK3 (human); compound 1.0 µM): 89%
residual activity (WNK3 (human); compound 10.0 µM): 60%
residual activity (KIT (human); compound 1.0 µM): 20%
residual activity (KIT (human); compound 10.0 µM): 2%
residual activity (CDC42BPA (human); compound 1.0 µM): 142%
residual activity (CDC42BPA (human); compound 10.0 µM): 135%
residual activity (YES1 (human); compound 1.0 µM): 17%
residual activity (YES1 (human); compound 10.0 µM): 0%
residual activity (MAPKAPK3 (human); compound 1.0 µM): 117%
residual activity (MAPKAPK3 (human); compound 10.0 µM): 88%
residual activity (FLT1 (human); compound 1.0 µM): 1%
residual activity (FLT1 (human); compound 10.0 µM): 0%
residual activity (ROCK1 (human); compound 1.0 µM): 108%
residual activity (ROCK1 (human); compound 10.0 µM): 92%
residual activity (PAK3 (human); compound 1.0 µM): 88%
residual activity (PAK3 (human); compound 10.0 µM): 57%
residual activity (ITK (human); compound 1.0 µM): 19%
residual activity (ITK (human); compound 10.0 µM): 1%
residual activity (CDK9 CCNT1 (human); compound 1.0 µM): 26%
residual activity (CDK9 CCNT1 (human); compound 10.0 µM): 11%
residual activity (RIPK2 (human); compound 1.0 µM): 60%
residual activity (RIPK2 (human); compound 10.0 µM): 27%
residual activity (NLK (human); compound 1.0 µM): 82%
residual activity (NLK (human); compound 10.0 µM): 67%
residual activity (FYN (human); compound 1.0 µM): 5%
residual activity (FYN (human); compound 10.0 µM): 0%
residual activity (HCK (human); compound 1.0 µM, ATP 45 µM): 8%
residual activity (HCK (human); compound 1.0 µM, ATP 70 µM): 15%
residual activity (HCK (human); compound 10.0 µM, ATP 45 µM): 1%
residual activity (HCK (human); compound 10.0 µM, ATP 70 µM): 5%
residual activity (MAPK8 (human); compound 1.0 µM): 63%
residual activity (MAPK8 (human); compound 10.0 µM): 70%
residual activity (PRKACA (human); compound 1.0 µM): 90%
residual activity (PRKACA (human); compound 10.0 µM): 54%
residual activity (MAP3K7 (human); compound 1.0 µM): 64%
residual activity (MAP3K7 (human); compound 10.0 µM): 71%
residual activity (IKBKB (human); compound 1.0 µM): 87%
residual activity (IKBKB (human); compound 10.0 µM): 67%
residual activity (AURKC (human); compound 1.0 µM): 61%
residual activity (AURKC (human); compound 10.0 µM): 49%
residual activity (MAPK10 (human); compound 1.0 µM): 7%
residual activity (MAPK10 (human); compound 10.0 µM): -2%
residual activity (PRKD2 (human); compound 1.0 µM): 109%
residual activity (PRKD2 (human); compound 10.0 µM): 98%
residual activity (MKNK2 (human); compound 1.0 µM): 62%
residual activity (MKNK2 (human); compound 10.0 µM): 18%
residual activity (PRKG1 (human); compound 1.0 µM): 79% and 77%
residual activity (PRKG1 (human); compound 10.0 µM): 45% and 67%
residual activity (RPS6KA4 KD1 KD2 (human); compound 1.0 µM): 32%
residual activity (RPS6KA4 KD1 KD2 (human); compound 10.0 µM): 4%
residual activity (PAK7 (human); compound 1.0 µM): 64%
residual activity (PAK7 (human); compound 10.0 µM): 33%
residual activity (PRKCG (human); compound 1.0 µM): 92%
residual activity (PRKCG (human); compound 10.0 µM): 73%
residual activity (EPHB3 (human); compound 1.0 µM): 105%
residual activity (EPHB3 (human); compound 10.0 µM): 103%
Compound: O=C1Nc2ccccc2/C1=C1\Nc2ccccc2\C1=N/O
